The text below walks through data of paper PMC8379015, “Resistance of Mycobacterium tuberculosis to indole 4-carboxamides occurs through alterations in drug metabolism and tryptophan biosynthesis” (Cell Chemical Biology, 2021).

In brackets after ≈: the same amount, converted by molar mass.

Experiment [1] has as its system M. tuberculosis H37Rv mutant 5K (trpB A134V). It counts as cell-based, Mycobacterium tuberculosis.
Experiment [2] has as its system M. tuberculosis H37Rv mutant 5G (amiC S157F). The format is cell-based, Mycobacterium tuberculosis.
Experiment [3] concerns M. tuberculosis H37Rv mutant 5B (amiC W238∗). The format is cell-based, Mycobacterium tuberculosis.
Experiment [4] relates to M. tuberculosis H37Rv mutant 5M (trpB D261G). It counts as cell-based, Mycobacterium tuberculosis.
Experiment [5] concerns M. tuberculosis H37Rv mutant 5A (amiC K195∗). It counts as cell-based, Mycobacterium tuberculosis.
Experiment [6] relates to M. tuberculosis H37Rv mutant 5N (trpA D54G). The format is cell-based, Mycobacterium tuberculosis.
Experiment [7] relates to M. tuberculosis H37Rv mutant 5J (trpB A168V). The format is cell-based, Mycobacterium tuberculosis.
The next experiment relates to C5R mutants of Mtb. The format is cell-based, Mycobacterium tuberculosis.
In experiment [8] the test system is C1-resistant mutants of M. tuberculosis. The format is cell-based, Mycobacterium tuberculosis.
Experiment [9] has as its system M. tuberculosis H37Rv mutant 5H (amiC + g in aa352). It counts as cell-based, Mycobacterium tuberculosis.
Experiment [10] deals with M. tuberculosis H37Rv mutant 5O (trpB D261G). The format is cell-based, Mycobacterium tuberculosis.
Experiment [11] has as its system M. tuberculosis H37Rv mutant 5I (amiC + g in aa352). It counts as cell-based, Mycobacterium tuberculosis.
Experiment [12] deals with M. tuberculosis H37Rv mutant 5L (trpE H170R). It counts as cell-based, Mycobacterium tuberculosis.
Experiment [13] relates to M. tuberculosis H37Rv recombineered trpB / trpE mutant strains. It counts as cell-based, Mycobacterium tuberculosis.
Another experiment addresses TrpE H170R (Mycobacterium tuberculosis, UniProt P9WFX3, H170R). It counts as biochemical.
Experiment [14] concerns M. tuberculosis H37Rv overexpressing AmiC (rv2888c, Psmyc). The format is cell-based, Mycobacterium tuberculosis.

With `Nc1cccc2[nH]ccc12` [4-AI, 4-aminoindole, reference compound], the MIC (in general, the smallest concentration in the dilution series that meets the test's criterion for growth inhibition) was 100 µM (≈ 13.2 µg/mL) in [1]; 4.68 µM (≈ 0.619 µg/mL) in experiment [2]; 4.68 µM (≈ 0.619 µg/mL) in [3]; 100 µM (≈ 13.2 µg/mL) in experiment [4]; 4.68 µM (≈ 0.619 µg/mL) in experiment [5]; 100 µM (≈ 13.2 µg/mL) in experiment [6]. For the same compound, the MIC in [7] worked out at 100 µM (≈ 13.2 µg/mL); in experiment [9], 4.68 µM (≈ 0.619 µg/mL); in experiment [10], 100 µM (≈ 13.2 µg/mL); in [11] it was 4.68 µM (≈ 0.619 µg/mL); in experiment [12], 100 µM (≈ 13.2 µg/mL). Further, the “cross-resistance of C5R mutants” value in the experiment with C5R mutants of Mtb is reported as “no cross-resistance”. For the same compound, the “cross-resistance of amiC mutants” value in experiment [8] was “not cross-resistant”. Besides, the “resistance of trpABE mutants” value in experiment [8] is given as “highly resistant”. In addition, in experiment [12], the “shift in MIC” value is given as “approximately 4 fold”. Moreover, the “resistance of recombineered strains” value in experiment [13] is on record as “resistant”.

`O=C(COc1ccccc1)Nc1cccc2[nH]ccc12` [C2, N-(1H-indol-4-yl)-2-phenoxyacetamide]: the MIC in [1] was found to be 25 µM (≈ 6.66 µg/mL); in [2] it was 75 µM (≈ 20 µg/mL); in [3] it was 75 µM (≈ 20 µg/mL); in experiment [4], 25 µM (≈ 6.66 µg/mL); in [5], 75 µM (≈ 20 µg/mL); in experiment [6] it was 25 µM (≈ 6.66 µg/mL). Moreover, the MIC came to 25 µM (≈ 6.66 µg/mL) in experiment [7]; 75 µM (≈ 20 µg/mL) in experiment [9]; 25 µM (≈ 6.66 µg/mL) in [10]; 75 µM (≈ 20 µg/mL) in [11]; 25 µM (≈ 6.66 µg/mL) in experiment [12]. Further, the “cross-resistance of C1-resistant mutants” value in experiment [8] was “cross-resistant”. Further, the “resistance of recombineered strains” value in experiment [13] is recorded as “resistant”.

In the case of `O=C(Nc1cccc2[nH]ccc12)C1CCCCC1` [C3, N-(1H-indol-4-yl)cyclohexanecarboxamide], the MIC in [1], in [2], in experiment [3], in [4], in [5] and in experiment [6] was over 100 µM each time. The MIC in experiment [7], in experiment [9], in experiment [10], in experiment [11] and in experiment [12] was over 100 µM throughout. The “cross-resistance of C1-resistant mutants” value in experiment [8] is recorded as “cross-resistant”.

Consider `O=C(Nc1cccc2[nH]ccc12)c1ccc(OCC(F)(F)F)cn1` [C4, N-(1H-indol-4-yl)-5-(2,2,2-trifluoroethoxy)picolinamide], for which the MIC in experiment [1] was 25 µM (≈ 8.38 µg/mL); in experiment [2], 75 µM (≈ 25.1 µg/mL); in [3], 75 µM (≈ 25.1 µg/mL); in [4] it was 25 µM (≈ 8.38 µg/mL); in experiment [5] it was 75 µM (≈ 25.1 µg/mL); in [6], 25 µM (≈ 8.38 µg/mL). Further, the MIC in [7] came out at 25 µM (≈ 8.38 µg/mL); in experiment [9], 75 µM (≈ 25.1 µg/mL); in experiment [10], 25 µM (≈ 8.38 µg/mL); in [11], 75 µM (≈ 25.1 µg/mL); in experiment [12], 25 µM (≈ 8.38 µg/mL). For the same compound, the “cross-resistance of C1-resistant mutants” value in [8] is “cross-resistant”.

In the case of `CNS(=O)(=O)c1ccc2c(c1)CCN2C(=O)c1ccc(C)s1` [C5, reference compound], the MIC was found to be 0.39 µM (≈ 0.131 µg/mL) in experiment [1]; 0.39 µM (≈ 0.131 µg/mL) in [2]; 0.39 µM (≈ 0.131 µg/mL) in experiment [3]; 0.098 µM (≈ 0.033 µg/mL) in experiment [4]; 0.39 µM (≈ 0.131 µg/mL) in [5]; 0.19 µM (≈ 0.0639 µg/mL) in [6]. The MIC in [7] came to 0.39 µM (≈ 0.131 µg/mL); in experiment [9], 0.39 µM (≈ 0.131 µg/mL); in experiment [10], 0.19 µM (≈ 0.0639 µg/mL); in [11] it was 0.39 µM (≈ 0.131 µg/mL); in [12] it was 0.39 µM (≈ 0.131 µg/mL). For the same compound, the “cross-resistance of mutants raised against C1” value in experiment [8] is listed as “None of the resistant mutants raised against C1 were cross-resistant”. Besides, in [8], the “susceptibility of one C1R mutant relative to WT” value was “more susceptible”.

With `NNC(=O)c1ccncc1` [INH, isoniazid, reference compound], the MIC in experiment [1], in experiment [2], in [3], in experiment [4], in experiment [5] and in experiment [6] was 0.12 µM (≈ 0.0165 µg/mL) each time. In addition, the MIC in [7], in [9], in experiment [10], in experiment [11] and in [12] was 0.12 µM (≈ 0.0165 µg/mL) in each case. Besides, in [13], the “resistance of recombineered strains” value was “not”.

In the case of `N[C@@H](Cc1c[nH]c2ccccc12)C(=O)O` [L-Trp, L-tryptophan], the “loss of sensitivity to allosteric inhibition, H170R vs WT” value on TrpE H170R worked out at 250 times.

For the compound “N-(1H-indol-4-yl)-6-(2,2,2-trifluoroethoxy)nicotinamide [C1]”, the MIC in experiment [1] was 6.25 µM; in [2], over 100 µM; in [3], over 100 µM; in experiment [4], 6.25 µM; in experiment [5] it was over 100 µM; in experiment [6] it was 6.25 µM. Also, the MIC is 6.25 µM in experiment [7]; over 100 µM in experiment [9]; 6.25 µM in [10]; over 100 µM in experiment [11]; 6.25 µM in experiment [12]. Besides, the “change in MIC on overexpression of AmiC” value in experiment [14] is “did not result in a noticeable change in MIC”. Also, the “cross-resistance of C5R mutants” value in the experiment on C5R mutants of Mtb is listed as “no cross-resistance”. Further, the “resistance of recombineered strains” value in [13] is “resistant”.
